± gives the uncertainty stated by the source.
Experiment: xn = mol fraction of the nth substance listed
Conditions: 333.15 K; 101 kPa; x1 = 1

O=C1CCCO1 + C[NH+](C)C.O=S(=O)([N-]S(=O)(=O)C(F)(F)F)C(F)(F)F
viscosity: 1.08 ± 0.07 mPa·s

Reference: the CheMixHub ionic liquid set
